We go through one molecule from patent EP0012161A1, “Application of 0-(2-nitro-4-methyl-phenyl)-0-methyl-N-isopropyl-phosphoroamido-thioat for inhibition of side growth of tobacco-plants” (BAYER AG, priority 1978, dated 1980).

What all share (assay type): in vivo
For one test, the system named is Weizen. The experiment in a line: Growth inhibition in wheat, greenhouse spray test. The following applies: 504 h; active compound concentration 0,05 %; plants at 2-leaf stage sprayed dripping wet; increase in growth measured after 3 weeks; 100 = growth standstill; read-out: Wuchshemmung in %. The source says: (§1) Lösungsmittel: 30 Gewichtsteile Dimethylformamid Emulgator: 1 Gewichtsteil Polyoxyethylen-SorbitanMonolaurat
(§2) Zur Herstellung einer zweckmäßigen Wirkstoffzubereitung vermischt man 1 Gewichtsteil Wirkstoff mit den angegebenen Mengen Lösungsmittel und Emulgator und füllt mit Wasser auf die gewünschte Konzentration auf.
Weizenpflanzen werden im Gewächshaus bis zum 2-BlattStadium angezogen. In diesem Stadium werden die Pflanzen tropfnaß mit den Wirkstoffzubereitungen besprüht. Nach 3 Wochen wird bei allen Pflanzen der Zuwachs gemessen und die Wuchshemmung in % des Zuwachses der Kontrollpflanzen berechnet. Es bedeuten 100 t den Stillstand des Wachstums und 0 % ein Wachstum entsprechend dem der Kontrollpflanzen.

In the next test the test system is Tabak. The experiment in a line: Inhibition of side shoot growth in tobacco, greenhouse spray test after decapitation. The following applies: 504 h, decapitated plants sprayed to run-off, weight of side shoots after 3 weeks versus control, 100 % = no side shoots, read-out: Wuchshemmung in %. From the text: Lösungsmittel: 30 Gewichtsteile Dimethylformamid Emulgator: 1 Gewichtsteil Polyoxyethylensorbitan-Monolaurat
Zur Herstellung einer zweckmäßigen Wirkstoffzubereitung vermischt man 1 Gewichsteil Wirkstoff mit den angegebenen Mengen Lösungsmittel und.Emulgator und füllt mit Wasser auf die gewünschte Konzentration auf.
Tabakpflanzen werden im Gewächshaus bis zur Entfaltung des 7. Laubblattes angezogen. In diesem Stadium wird die apikale Vegetationsspitze der Pflanzen entfernt und die Pflanzen werden bis zum Abtropfen mit den Wirkstoffzubereitungen besprüht. Nach 3 Wochen werden die Seitentriebe der Pflanzen herausgebrochen und gewogen. Das Gewicht der Seitentriebe der behandelten Pflanzen wird mit dem der Kontrollpflanzen verglichen. 100 % Hemmung bedeutet das Fehlen von Seitentrieben und 0 t ein Wachstum der Seitentriebe entsprechend dem der Kontrollpflanzen.

A further test has as its system Acer pseudoplatanus. The experiment in a line: Growth inhibition in woody plants (Acer pseudoplatanus), greenhouse spray test. The following applies: 1008 h, one-year seedlings sprayed to run-off, increase in growth measured after 6 weeks, 100 % = growth standstill, 0 % = growth as control, read-out: Wuchshemmung in %.
From the text: (§3) Lösungsmittel : 30 Gewichtsteile Dimethylformamid Emulgator: 1 Gewichtsteil Polyoxyethylen-SorbitanMonolaurat
as §2
(§4) Einjährige Sämlinge mit einer Wuchshöhe von 25 cm werden mit den Wirkstoffzubereitungen bis zum Abtropfen besprüht. Nach 6 Wochen Wachstum im Gewächshaus wird der Zuwachs gemessen und die Wuchshemmung in Prozent des Zuwachses der Kontrollpflanzen berechnet. 100 % bedeuten den Stillstand des Wachstums und 0 % ein Wachstum entsprechend dem der Kontrollpflanzen.

The next test deals with Alnus glutinosa. The experiment in a line: Growth inhibition in woody plants (Alnus glutinosa), greenhouse spray test. Conditions: 1008 h, one-year seedlings sprayed to run-off, increase in growth measured after 6 weeks, 100 % = growth standstill, 0 % = growth as control, read-out: Wuchshemmung in %.
From the text: as §3, §2, §4

The next test concerns Sojabohnen. The experiment in a line: Growth inhibition in soybeans, greenhouse spray test. The following applies: 504 h; active compound concentration 0,05 %; plants with first trifoliate leaf unfolded sprayed dripping wet; increase in growth measured after 3 weeks; 100 % = growth standstill; read-out: Wuchshemmung in %.
From the text: as §1, §2
Sojabohnenpflanzen werden im Gewächshaus bis zur vollen Entfaltung des ersten Folgeblattes angezogen. In diesem Stadium werden die Pflanzen tropfnaß mit den Wirkstoffzubereitungen besprüht. Nach 3 Wochen wird bei allen Pflanzen der Zuwachs gemessen und die Wuchshemmung in % des Zuwachses der Kontrollpflanzen berechnet. Es bedeuten 100 % den Stillstand des Wachstums und O % ein Wachstum entsprechend dem der Kontrollpflanzen.

Where [1] appears, read: active compound concentration 0,4 %.
Where [2] appears, read: active compound concentration 0,1 %.

As to `COP(=S)(NC(C)C)Oc1ccc(C)cc1[N+](=O)[O-]` (stereo not drawn), the results for the inhibition at 0.05 % in the test on Weizen and in the test on Sojabohnen were 35% and 80%, respectively. Moreover, in the test on Tabak (active compound concentration 0,2 %), the inhibition at 0.2 % was 92%. Also, the inhibition at 0.4 % in the test on Tabak (setting [1]) is 99%; in the test on Acer pseudoplatanus (setting [1]) it was 83%; in the test with Alnus glutinosa (setting [1]), 75%. In addition, in the test with Tabak (active compound concentration 0,6 %), the inhibition at 0.6 % stood at 99%. Also, the inhibition at 0.1 % was 65% in the test on Acer pseudoplatanus (setting [2]) and 50% in the test with Alnus glutinosa (setting [2]).
